Here are results for 14 compounds from patent publication US20250163057A1, “DCN-1 MODULATING COMPOUNDS AND METHODS OF USE THEREOF” (Cellarity, Inc., priority 2023, published 2025).

Experiment [1] deals with Cullin-3 (CUL3) neddylation. Briefly: AlphaLISA assay for Cullin-3 (CUL3) neddylation in TF 1 cells. Format: cell-based. To be noted: Homo sapiens, TF-1, 3 h, 3 hours treatment. The gist of the method:
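Neddylated CUL3 was quantified by AlphaLISA in lysates of TF 1 cells exposed for 3 h to test compound in IMDM without supplements. Percent inhibition set between vehicle and 1 μM DI-1548 positive control; IC50 derived by Hill-equation fitting of dose-response curves.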
(In Alpha technology, singlet oxygen from a donor bead excites a nearby acceptor bead.)

Experiment [2] concerns the target DCN1 protein (Homo sapiens (Human), UniProt Q96GG9). The experiment is described as follows: Intact Protein MS Analysis with the RapidFire-TOF System (covalent adduct formation). Type of experiment: binding. To be noted: MS Emax; 400 nM DCN1, 3 hours at room temperature. The gist of the method:
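Tag-cleaved human DCN1 (400 nM) expressed in E. coli, in 25 mM Tris-HCl, 200 mM NaCl, 1 mM DTT, was incubated with 11 compound concentrations for 3 h at room temperature and quenched with 0.2% formic acid. Intact-protein Q-TOF MS with deconvolution detected the compound adduct mass.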

The target in experiment [3] is DCN1 (DCUND1) protein PONY domain (Homo sapiens (Human), UniProt Q96GG9). Briefly: TR-FRET assay, DCN1 binding with FAM-labeled probe. The gist of the method: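 Tb-DCN1 PONY domain (E. coli, biotin/streptavidin-Tb); FAM-labelled non-covalent inhibitor probe; TritonX buffer, 200 mM NaCl; 5 nM DCN1 + 20 nM probe or 0.31 nM DCN1 + 900 nM total probe; 0.1% DMSO; TR-FRET read 1, 5, 24 hrs.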
Chain of DCN1 (DCUND1) protein PONY domain (Q96GG9 60-248): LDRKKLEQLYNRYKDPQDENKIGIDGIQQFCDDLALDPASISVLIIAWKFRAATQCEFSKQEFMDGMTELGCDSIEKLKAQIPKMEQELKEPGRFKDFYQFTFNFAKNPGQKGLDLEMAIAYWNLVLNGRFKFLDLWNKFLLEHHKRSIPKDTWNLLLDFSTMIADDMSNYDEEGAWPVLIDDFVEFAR
(In general: Time-resolved FRET reads energy transfer from a long-lived donor to a nearby acceptor.)

The test system of experiment [4] is fetal hemoglobin gene HBG1. Briefly: HBG1 Nanostring Assay in CD34+ HSPC erythroid differentiation culture. Format: cell-based, human. The settings on record: for EC50: Homo sapiens, 240 h, HBG1 induction, Day10 of erythroid differentiation; for Nanostring Ymax obs (%): relative to a control compound (C1). Put shortly: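 HBG1 counts came from direct nCounter hybridization (67° C, 22 h) of day-10 lysates, normalized to ERCC positive controls and a housekeeping gene, giving EC50 and Ymax versus a reference compound. Compounds in 0.1% DMSO were present from day −2 while cells underwent EPO/SCF/IL-3 erythroid differentiation, with IL-3 dropped at day 7, at 37° C.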

The mark [5] stands for this setting: 24 hr after treatment with compound, read-out: TR FRET IC50 24 hr.
Where [6] appears, read: read-out: TR FRET IC50 1 hr, 1 hr after treatment with compound.
Setting [7] is: TR FRET IC50 1 hr (nM), 1 hr after treatment with compound.

Where two headings read alike, the source gives them in different places.

Chain of DCN1 protein (Q96GG9 whole entry): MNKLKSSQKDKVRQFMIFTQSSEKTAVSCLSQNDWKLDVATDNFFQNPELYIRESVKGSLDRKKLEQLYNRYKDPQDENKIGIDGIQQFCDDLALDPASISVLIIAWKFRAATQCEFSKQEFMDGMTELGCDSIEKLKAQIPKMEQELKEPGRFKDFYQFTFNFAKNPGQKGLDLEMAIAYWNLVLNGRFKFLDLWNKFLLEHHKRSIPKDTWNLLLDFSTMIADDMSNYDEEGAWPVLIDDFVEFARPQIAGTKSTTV

As for `C=CC(=O)Nc1nn(-c2ccccc2)c2c1[C@H](c1ccc(F)cc1)[C@H](NC(=O)c1cccc(C(F)(F)F)c1)C(=O)N2CC` (racemic) [Compound I-122], the 50% inhibitory concentration (IC50) – broadly, the concentration needed to halve the response being measured – in experiment [1] was 100 to 1000 nM; in experiment [3] (setting [5]), not above 200 nM; in experiment [3] (setting [6]), not above 200 nM. In addition, the “% Adduct Formation” value in experiment [2] is “++ (MS Emax % adduct formation greater than 30.0 and less than or equal to 80.0)”. Besides, in experiment [4], the EC50 (as a rule, the concentration needed to bring the measured effect to its halfway point) was more than 1000 nM. The “Nanostring Ymax obs (%)” value in experiment [4] was “++ (Nanostring Ymax greater than 50.0 and less than or equal to 100.0)”.
As for `CCN1C(=O)[C@@H](NC(=O)c2cccc(C(F)(F)F)c2)[C@@H](c2ccc(F)cc2)c2c(C(=O)N3CCNC[C@@H]3C#N)nn(C3CCOCC3)c21` [Compound I-364], the IC50 in experiment [1] was not above 100 nM; in experiment [3] (setting [5]), not above 200 nM; in experiment [3] (setting [6]) it was not above 200 nM. In addition, the “% Adduct Formation” value in experiment [2] was “+++ (MS Emax % adduct formation greater than 80.0 and less than or equal to 100.0)”. Further, the 50% effective concentration (EC50) in experiment [4] is not above 100 nM. Also, the “Nanostring Ymax obs (%)” value in experiment [4] is “++ (Nanostring Ymax greater than 50.0 and less than or equal to 100.0)”.
Take `CCN1C(=O)[C@@H](NC(=O)c2cccc(C(F)(F)F)c2)[C@@H](c2ccc(F)cc2)c2c(C(=O)N3CCC[C@H]3C#N)nn(C3CCOCC3)c21` (mixture of isomers) [Compound I-292]: the IC50 in experiment [1] is not above 100 nM; in experiment [3] (setting [5]) it was not above 200 nM; in experiment [3] (setting [6]), not above 200 nM. In addition, in experiment [2], the “% Adduct Formation” value is “+++ (MS Emax % adduct formation greater than 80.0 and less than or equal to 100.0)”. For the same compound, the EC50 in experiment [4] was not above 100 nM. In addition, in experiment [4], the “Nanostring Ymax obs (%)” value is listed as “+++ (Nanostring Ymax greater than 100.0)”.
Take `C/C=C/C(=O)Nc1nn(-c2ccccc2)c2c1[C@H](c1ccc(F)cc1)[C@H](NC(=O)c1cccc(C(F)(F)F)c1)C(=O)N2CC` (racemic) [Compound I-62]: the half-inhibitory concentration (IC50) was 100 to 1000 nM in experiment [1], 200 to 1000 nM in experiment [3] (setting [5]) and not above 200 nM in experiment [3] (setting [6]). Moreover, in experiment [2], the “% Adduct Formation” value is “+ (MS Emax % adduct formation greater than or equal to 0.0 and less than or equal to 30.0)”. For the same compound, in experiment [4], the EC50 is more than 1000 nM. In experiment [4], the “Nanostring Ymax obs (%)” value was “+ (Nanostring Ymax greater than or equal to 0.0 and less than or equal to 50.0)”.
For `C=C(CN1CCOCC1)C(=O)Nc1nn(-c2ccccc2)c2c1[C@H](c1ccc(F)cc1)[C@H](NC(=O)c1cccc(C(F)(F)F)c1)C(=O)N2CC` (racemic) [Compound I-75], the IC50 in experiment [1] is not above 100 nM; in experiment [3] (setting [5]), not above 200 nM; in experiment [3] (setting [6]), not above 200 nM. In addition, the “% Adduct Formation” value in experiment [2] is “+++ (MS Emax % adduct formation greater than 80.0 and less than or equal to 100.0)”. Also, in experiment [4], the “Nanostring Ymax obs (%)” value is given as “+++ (Nanostring Ymax greater than 100.0)”.
For `CCN1C(=O)[C@@H](NC(=O)c2cccc(C(F)(F)F)c2)[C@@H](c2ccc(F)cc2)c2c(C(=O)N3C[C@H](F)C[C@H]3C#N)nn(-c3ccccc3)c21` (mixture of isomers) [Compound I-273], the half-inhibitory concentration (IC50) in experiment [1] is not above 100 nM; in experiment [3] (setting [5]) it was not above 200 nM; in experiment [3] (setting [6]) it was not above 200 nM. Moreover, the “% Adduct Formation” value in experiment [2] was “+++ (MS Emax % adduct formation greater than 80.0 and less than or equal to 100.0)”. In addition, the “Nanostring Ymax obs (%)” value in experiment [4] is listed as “+++ (Nanostring Ymax greater than 100.0)”.
`C=C(CC(=O)NCc1nn(-c2ccccc2)c2c1[C@H](c1ccc(F)cc1)[C@H](NC(=O)c1cccc(C(F)(F)F)c1)C(=O)N2CC)C(=O)OC` (racemic) [Compound I-4]: the IC50 in experiment [1] was not above 100 nM; in experiment [3] (setting [5]), not above 200 nM; in experiment [3] (setting [7]), not above 200 nM. The “% Adduct Formation” value in experiment [2] is “+++ (MS Emax % adduct formation greater than 80.0 and less than or equal to 100.0)”. This compound also came in with an EC50 in experiment [4] of 100 to 1000 nM. Further, the “Nanostring Ymax obs (%)” value in experiment [4] is “++ (Nanostring Ymax greater than 50.0 and less than or equal to 100.0)”.
In the case of `CCN1C(=O)[C@@H](NC(=O)c2cccc(C(F)(F)F)c2)[C@@H](c2ccc(F)cc2)c2c(C(=O)N3C[C@H](F)C[C@H]3C#N)nn(C3CCOCC3)c21` [Compound I-360], the half-maximal inhibitory concentration (IC50) in experiment [1] is not above 100 nM; in experiment [3] (setting [5]) it was not above 200 nM; in experiment [3] (setting [6]), not above 200 nM. Besides, in experiment [2], the “% Adduct Formation” value was “+++ (MS Emax % adduct formation greater than 80.0 and less than or equal to 100.0)”. Further, the concentration giving a half-maximal response (EC50) in experiment [4] is not above 100 nM. In experiment [4], the “Nanostring Ymax obs (%)” value is on record as “+++ (Nanostring Ymax greater than 100.0)”.
Regarding `CCN1C(=O)[C@@H](NC(=O)c2cccc(C(F)(F)F)c2)[C@@H](c2ccc(F)cc2)c2c(NC(=O)/C=C/C(F)(F)F)nn(-c3ccccc3)c21` [Compound I-125], the figures for the IC50 in experiment [1], in experiment [3] (setting [5]) and in experiment [3] (setting [6]) were not above 100 nM, 200 to 1000 nM and more than 3000 nM, respectively. Further, the “% Adduct Formation” value in experiment [2] is “++ (MS Emax % adduct formation greater than 30.0 and less than or equal to 80.0)”. This compound yielded an EC50 in experiment [4] of 100 to 1000 nM. Further, the “Nanostring Ymax obs (%)” value in experiment [4] is “+++ (Nanostring Ymax greater than 100.0)”.
Consider `CCN1C(=O)[C@@H](NC(=O)c2cccc(C(F)(F)F)c2)[C@@H](c2ccc(F)cc2)c2c(NC(=O)C3=CCCC3)nn(-c3ccccc3)c21` (racemic) [Compound I-65], for which the figures for the 50% inhibitory concentration (IC50) in experiment [1], in experiment [3] (setting [5]) and in experiment [3] (setting [6]) were not above 100 nM, 200 to 1000 nM and not above 200 nM, respectively. Further, the “% Adduct Formation” value in experiment [2] was “+ (MS Emax % adduct formation greater than or equal to 0.0 and less than or equal to 30.0)”. In experiment [4], the concentration for a half-maximal effect (EC50) was more than 1000 nM. Besides, the “Nanostring Ymax obs (%)” value in experiment [4] was “++ (Nanostring Ymax greater than 50.0 and less than or equal to 100.0)”.
On to `C=C(C(=O)OCC)c1nn(-c2ccccc2)c2c1[C@H](c1ccc(F)cc1)[C@H](NC(=O)c1cccc(C(F)(F)F)c1)C(=O)N2CC` (racemic) [Compound I-35, rac-ethyl 2-((4R,5R)-7-ethyl-4-(4-fluorophenyl)-6-oxo-1-phenyl-5-(3-(trifluoromethyl)benzamido)-4,5,6,7-tetrahydro-1H-pyrazolo[3,4-b]pyridine-3-yl)acrylate], for which the IC50 in experiment [1] is 100 to 1000 nM; in experiment [3] (setting [5]) it was not above 200 nM; in experiment [3] (setting [7]), more than 3000 nM. Moreover, the “% Adduct Formation” value in experiment [2] is “+ (MS Emax % adduct formation greater than or equal to 0.0 and less than or equal to 30.0)”. For the same compound, the concentration giving a half-maximal response (EC50) in experiment [4] is 100 to 1000 nM. The “Nanostring Ymax obs (%)” value in experiment [4] was “+ (Nanostring Ymax greater than or equal to 0.0 and less than or equal to 50.0)”.
As for `CCN1C(=O)[C@@H](NC(=O)c2cccc(C(F)(F)F)c2)[C@@H](c2ccc(F)cc2)c2c(CNC(=O)C(C)(C)C#N)nn(-c3ccccc3)c21` (racemic) [Compound I-7, rac-N-((4R,5R)-3-((2-cyano-2-methylpropanamido)methyl)-7-ethyl-4-(4-fluorophenyl)-6-oxo-1-phenyl-4,5,6,7-tetrahydro-1H-pyrazolo[3,4-b]pyridine-5-yl)-3-(trifluoromethyl)benzamide], the IC50 in experiment [1] fell in the range of 100 to 1000 nM; in experiment [3] (setting [5]), 1000 to 3000 nM; in experiment [3] (setting [7]) it was 1000 to 3000 nM. In addition, the “% Adduct Formation” value in experiment [2] is “+ (MS Emax % adduct formation greater than or equal to 0.0 and less than or equal to 30.0)”. Moreover, the EC50 in experiment [4] was more than 1000 nM. In addition, in experiment [4], the “Nanostring Ymax obs (%)” value is “+ (Nanostring Ymax greater than or equal to 0.0 and less than or equal to 50.0)”.
Turning to `CCN1C(=O)[C@@H](NC(=O)c2cccc(C(F)(F)F)c2)[C@@H](C)c2c(C(=O)N3[C@H](C#N)C[C@H]4C[C@H]43)nn(C3CCOCC3)c21` (mixture of isomers) [Compound I-386], the IC50 in experiment [1] is not above 100 nM; in experiment [3] (setting [5]), not above 200 nM; in experiment [3] (setting [6]), not above 200 nM. The “% Adduct Formation” value in experiment [2] is “+++ (MS Emax % adduct formation greater than 80.0 and less than or equal to 100.0)”. The compound also returned a concentration giving a half-maximal response (EC50) in experiment [4] not above 100 nM. Moreover, the “Nanostring Ymax obs (%)” value in experiment [4] was “+++ (Nanostring Ymax greater than 100.0)”.
For the compound `C=C(C(=O)O)c1nn(-c2ccccc2)c2c1[C@@H](c1ccc(F)cc1)[C@@H](NC(=O)c1cccc(C(F)(F)F)c1)C(=O)N2CC` [Compound I-77, 2-((4R,5R)-7-ethyl-4-(4-fluorophenyl)-6-oxo-1-phenyl-5-(3-(trifluoromethyl)benzamido)-4,5,6,7-tetrahydro-1H-pyrazolo[3,4-b]pyridin-3-yl)acrylic acid], the 50% inhibitory concentration (IC50) in experiment [1] is more than 1000 nM; in experiment [3] (setting [5]), 1000 to 3000 nM; in experiment [3] (setting [7]), 1000 to 3000 nM. In addition, the “% Adduct Formation” value in experiment [2] is “+ (MS Emax % adduct formation greater than or equal to 0.0 and less than or equal to 30.0)”. Besides, in experiment [4], the EC50 is more than 1000 nM. In addition, the “Nanostring Ymax obs (%)” value in experiment [4] is “+ (Nanostring Ymax greater than or equal to 0.0 and less than or equal to 50.0)”.
